Results taken from patent publication US5250283A, “Organic contrast agent analog and method of making same” (priority 1992, dated 1993).
Where two headings read alike, the source gives them in different places.

Key:
[1] = Biliary excretion and bile flow after i.v. TFA-IOP (100 umol/kg) or IOP (100 in text, 104 umol/kg in tables) in rats; conditions: for Percentage of dose per kg. body wt.: rat bile; for Percentage of dose per kg. body wt. / Bile flow / Bile flow per kg b.w. / Bile flow per kg l.w.: i.v.
Procedure: Tissues examined included liver, spleen, upper GI, lower GI, kidney, lung and heart. The length of each study was 90 minutes, during which time bile, urine and plasma samples were taken to monitor uptake and excretion. NMR relaxation rates for liver and plasma were also examined to note whether uptake of either compound might possible alter these parameters.

[2] = Urinary excretion after i.v. IOP or TFA-IOP in rats; type: in vivo; conditions: rat
[3] = Tissue distribution 90 min after i.v. TFA-IOP (100 umol/kg) or IOP (100 in text, 104 umol/kg in tables) in rats; type: in vivo; conditions: rat; for concentration at 1.5 h: 100 umol/kg; for concentration at 1.5 h / uMoles per gram tissue / uMoles per kg / Percentage of dose in tissue: i.v.; for Percentage of dose in tissue: Table 6; for tissue uptake at 1.5 h: read-out: Percentage of dose per gram
Source text: No standard curves were compiled for these tissues. The values given
represent concentrations generated using the LIVER analysis routine and
standard curve. Because this routine utilizes a control LIVER spectra for
background modeling, erroneous Iodine concentration values for these
tissues may result due to inappropriate background removal.

[4] = Plasma concentration after i.v. IOP or TFA-IOP in rats; type: in vivo; conditions: plasma, iv, 100 umol/kg, rat

SMILES: CCC(Cc1c(I)cc(I)c(N)c1I)C(=O)O (centres unmarked) [IOP, iopanoic acid, reference compound]
- Percentage of dose per kg. body wt. ([1]; 0-10 min): 1.29 PERCENTAGE OF DOSE per kg. bod
- Percentage of dose per kg. body wt. ([1]; 10-20 min): 4.38 PERCENTAGE OF DOSE per kg. bod
- Percentage of dose per kg. body wt. ([1]; 20-30 min): 6.60 PERCENTAGE OF DOSE per kg. bod
- Percentage of dose per kg. body wt. ([1]; 30-40 min): 5.61 PERCENTAGE OF DOSE per kg. bod
- Percentage of dose per kg. body wt. ([1]; 40-50 min): 6.55 PERCENTAGE OF DOSE per kg. bod
- Percentage of dose per kg. body wt. ([1]; 50-60 min): 3.86 PERCENTAGE OF DOSE per kg. bod
- Percentage of dose per kg. body wt. ([1]; 60-70 min): 4.71 PERCENTAGE OF DOSE per kg. bod
- Percentage of dose per kg. body wt. ([1]; 70-80 min): 4.61 PERCENTAGE OF DOSE per kg. bod
- Percentage of dose per kg. body wt. ([1]; 80-90 min): 5.45 PERCENTAGE OF DOSE per kg. bod
- Cmax at 1.5 h ([1]; rat, bile, iv, 100 umol/kg): 10000 µM
- concentration at 5 min ([1]; rat, bile, iv, 100 umol/kg): 1610 µM
- concentration at 10 min ([1]; rat, bile, iv, 100 umol/kg): 1610 µM
- concentration at 0.25 h ([1]; rat, bile, iv, 100 umol/kg): 8660 µM
- concentration at 20 min ([1]; rat, bile, iv, 100 umol/kg): 8660 µM
- concentration at 25 min ([1]; rat, bile, iv, 100 umol/kg): 10500 µM
- concentration at 0.5 h ([1]; rat, bile, iv, 100 umol/kg): 10500 µM
- concentration at 35 min ([1]; rat, bile, iv, 100 umol/kg): 9850 µM
- concentration at 40 min ([1]; rat, bile, iv, 100 umol/kg): 9850 µM
- concentration at 50 min ([1]; rat, bile, iv, 100 umol/kg): 9670 µM
- concentration at 55 min ([1]; rat, bile, iv, 100 umol/kg): 7320 µM
- concentration at 1 h ([1]; rat, bile, iv, 100 umol/kg): 7320 µM
- concentration at 65 min ([1]; rat, bile, iv, 100 umol/kg): 7530 µM
- concentration at 70 min ([1]; rat, bile, iv, 100 umol/kg): 7530 µM
- concentration at 1.25 h ([1]; rat, bile, iv, 100 umol/kg): 7760 µM
- concentration at 80 min ([1]; rat, bile, iv, 100 umol/kg): 7760 µM
- concentration at 85 min ([1]; rat, bile, iv, 100 umol/kg): 9560 µM
- concentration at 1.5 h ([1]; rat, bile, iv, 100 umol/kg): 9560 µM
- dose excreted at 1.5 h ([1]; rat, bile, iv, 100 umol/kg): 18%
- Bile flow ([1]; rat, 0-10 min): .01375 mL/min
- Bile flow per kg b.w. ([1]; rat, 0-10 min): .03386 ml/min per kg b.w.
- Bile flow per kg l.w. ([1]; rat, 0-10 min): 1.147 ml/min per kg l.w.
- Bile flow ([1]; rat, 10-20 min): .00867 mL/min
- Bile flow per kg b.w. ([1]; rat, 10-20 min): .02136 ml/min per kg b.w.
- Bile flow per kg l.w. ([1]; rat, 10-20 min): .72404 ml/min per kg l.w.
- Bile flow ([1]; rat, 20-30 min): .01077 mL/min
- Bile flow per kg b.w. ([1]; rat, 20-30 min): .02652 ml/min per kg b.w.
- Bile flow per kg l.w. ([1]; rat, 20-30 min): .89866 ml/min per kg l.w.
- Bile flow ([1]; rat, 30-40 min): .00977 mL/min
- Bile flow per kg b.w. ([1]; rat, 30-40 min): .02406 ml/min per kg b.w.
- Bile flow per kg l.w. ([1]; rat, 30-40 min): .81528 ml/min per kg l.w.
- Bile flow ([1]; rat, 40-50 min): .01161 mL/min
- Bile flow per kg b.w. ([1]; rat, 40-50 min): .02861 ml/min per kg b.w.
- Bile flow per kg l.w. ([1]; rat, 40-50 min): .96953 ml/min per kg l.w.
- Bile flow ([1]; rat, 50-60 min): .00904 mL/min
- Bile flow per kg b.w. ([1]; rat, 50-60 min): .02225 ml/min per kg b.w.
- Bile flow per kg l.w. ([1]; rat, 50-60 min): .75417 ml/min per kg l.w.
- Bile flow ([1]; rat, 60-70 min): .01072 mL/min
- Bile flow per kg b.w. ([1]; rat, 60-70 min): .02640 ml/min per kg b.w.
- Bile flow per kg l.w. ([1]; rat, 60-70 min): .89457 ml/min per kg l.w.
- Bile flow ([1]; rat, 70-80 min): .01018 mL/min
- Bile flow per kg b.w. ([1]; rat, 70-80 min): .02506 ml/min per kg b.w.
- Bile flow per kg l.w. ([1]; rat, 70-80 min): .84942 ml/min per kg l.w.
- Bile flow ([1]; rat, 80-90 min): .00977 mL/min
- Bile flow per kg b.w. ([1]; rat, 80-90 min): .02407 ml/min per kg b.w.
- Bile flow per kg l.w. ([1]; rat, 80-90 min): .81586 ml/min per kg l.w.
- dose excreted at 10 min ([1]; rat, in vivo, iv, 100 umol/kg, Percentage of dose in bile sample, 0-10 min): 0.52%
- dose excreted at 20 min ([1]; rat, in vivo, iv, 100 umol/kg, Percentage of dose in bile sample, 10-20 min): 1.78%
- dose excreted at 0.5 h ([1]; rat, in vivo, iv, 100 umol/kg, Percentage of dose in bile sample, 20-30 min): 2.68%
- dose excreted at 40 min ([1]; rat, in vivo, iv, 100 umol/kg, Percentage of dose in bile sample, 30-40 min): 2.28%
- dose excreted at 50 min ([1]; rat, in vivo, iv, 100 umol/kg, Percentage of dose in bile sample, 40-50 min): 2.66%
- dose excreted at 1 h ([1]; rat, in vivo, iv, 100 umol/kg, Percentage of dose in bile sample, 50-60 min): 1.57%
- dose excreted at 70 min ([1]; rat, in vivo, iv, 100 umol/kg, Percentage of dose in bile sample, 60-70 min): 1.91%
- dose excreted at 80 min ([1]; rat, in vivo, iv, 100 umol/kg, Percentage of dose in bile sample, 70-80 min): 1.87%
- dose excreted at 1.5 h ([1]; rat, in vivo, iv, 100 umol/kg, Percentage of dose in bile sample, 80-90 min): 2.21%
- dose excreted at 10 min ([1]; rat, in vivo, iv, 100 umol/kg, Percentage of dose running total in bile, through 0-10 min): 0.52%
- dose excreted at 20 min ([1]; rat, in vivo, iv, 100 umol/kg, Percentage of dose running total in bile, through 10-20 min): 2.3%
- dose excreted at 0.5 h ([1]; rat, in vivo, iv, 100 umol/kg, Percentage of dose running total in bile, through 20-30 min): 4.98%
- dose excreted at 40 min ([1]; rat, in vivo, iv, 100 umol/kg, Percentage of dose running total in bile, through 30-40 min): 7.26%
- dose excreted at 50 min ([1]; rat, in vivo, iv, 100 umol/kg, Percentage of dose running total in bile, through 40-50 min): 9.92%
- dose excreted at 1 h ([1]; rat, in vivo, iv, 100 umol/kg, Percentage of dose running total in bile, through 50-60 min): 11.5%
- dose excreted at 70 min ([1]; rat, in vivo, iv, 100 umol/kg, Percentage of dose running total in bile, through 60-70 min): 13.4%
- dose excreted at 80 min ([1]; rat, in vivo, iv, 100 umol/kg, Percentage of dose running total in bile, through 70-80 min): 15.3%
- dose excreted at 1.5 h ([1]; rat, in vivo, iv, 100 umol/kg, Percentage of dose running total in bile, through 80-90 min): 17.5%
- Urine concentration ([2]; 0-20 min): 0 µM
- Urine concentration ([2]; 20-40 min): 0 µM
- Urine concentration ([2]; 40-60 min): 0 µM
- Urine concentration ([2]; 60-80 min): 0 µM
- Urine concentration ([2]; 80-90 min): 0 µM
- concentration at 1.5 h ([3]; heart, iv, 90 min, liver standard curve used, may be erroneous, read-out: Heart concentration): 259 µM
- uMoles per gram tissue ([3]; 90 min, heart): .26 uMOLES per gram
- uMoles per kg ([3]; 90 min, heart): 259.38 uMOLES per kg
- Percentage of dose in tissue ([3]; 90 min, heart): .72 PERCENTAGE OF DOSE
- uMoles per gram tissue ([3]; 90 min, kidney): .11 uMOLES per gram
- uMoles per kg ([3]; 90 min, kidney): 105.40 uMOLES per kg
- Percentage of dose in tissue ([3]; 90 min, kidney): .69 PERCENTAGE OF DOSE
- uMoles per gram tissue ([3]; 90 min, liver): .51 uMOLES per gram
- uMoles per kg ([3]; 90 min, liver): 511.90 uMOLES per kg
- Percentage of dose in tissue ([3]; 90 min, liver): 14.52 PERCENTAGE OF DOSE
- uMoles per gram tissue ([3]; 90 min, lower GI): .14 uMOLES per gram
- uMoles per kg ([3]; 90 min, lower GI): 135.23 uMOLES per kg
- Percentage of dose in tissue ([3]; 90 min, lower GI): .59 PERCENTAGE OF DOSE
- uMoles per gram tissue ([3]; 90 min, lung): .32 uMOLES per gram
- uMoles per kg ([3]; 90 min, lung): 324.91 uMOLES per kg
- Percentage of dose in tissue ([3]; 90 min, lung): 1.21 PERCENTAGE OF DOSE
- uMoles per gram tissue ([3]; 90 min, spleen): .26 uMOLES per gram
- uMoles per kg ([3]; 90 min, spleen): 255.54 uMOLES per kg
- Percentage of dose in tissue ([3]; 90 min, spleen): .45 PERCENTAGE OF DOSE
- uMoles per gram tissue ([3]; 90 min, upper GI): .31 uMOLES per gram
- uMoles per kg ([3]; 90 min, upper GI): 307.91 uMOLES per kg
- Percentage of dose in tissue ([3]; 90 min, upper GI): 1.31 PERCENTAGE OF DOSE
- % of dose in heart ([3]; in vivo, iv, 90 min): 0.72%
- % of dose in kidney ([3]; in vivo, iv, 90 min): 0.69%
- % of dose in liver ([3]; in vivo, iv, 90 min): 14.53%
- % of dose in lower GI ([3]; in vivo, iv, 90 min): 0.59%
- % of dose in lung ([3]; in vivo, iv, 90 min): 1.21%
- % of dose in spleen ([3]; in vivo, iv, 90 min): 0.45%
- % of dose in upper GI ([3]; in vivo, iv, 90 min): 1.31%
- tissue uptake at 1.5 h ([3]; in vivo, iv, 90 min, heart): 0.61 %ID/g
- tissue uptake at 1.5 h ([3]; in vivo, iv, 90 min, kidney): 0.25 %ID/g
- tissue uptake at 1.5 h ([3]; in vivo, iv, 90 min, liver): 1.21 %ID/g
- tissue uptake at 1.5 h ([3]; in vivo, iv, 90 min, lower GI): 0.32 %ID/g
- tissue uptake at 1.5 h ([3]; in vivo, iv, 90 min, lung): 0.77 %ID/g
- tissue uptake at 1.5 h ([3]; in vivo, iv, 90 min, spleen): 0.61 %ID/g
- tissue uptake at 1.5 h ([3]; in vivo, iv, 90 min, upper GI): 0.73 %ID/g
- concentration at 1.5 h ([3]; kidney, iv, 90 min post injection, read-out: Kidney concentration): 105 µM
- concentration at 1.5 h ([3]; kidney, iv, 90 min post injection, read-out: kidney concentration): 105 µM
- concentration at 1.5 h ([3]; liver, iv, 90 min post injection, read-out: Liver concentration): 512 µM
- concentration at 1.5 h ([3]; liver, iv, 90 min post injection, read-out: liver concentration): 512 µM
- concentration at 1.5 h ([3]; lower gi, iv, 90 min, liver standard curve used, may be erroneous, read-out: Lower GI concentration): 135 µM
- concentration at 1.5 h ([3]; lung, iv, 90 min, liver standard curve used, may be erroneous, read-out: Lung concentration): 325 µM
- concentration at 1.5 h ([3]; spleen, iv, 90 min, liver standard curve used, may be erroneous, read-out: Spleen concentration): 256 µM
- concentration at 1.5 h ([3]; upper gi, iv, 90 min, liver standard curve used, may be erroneous, read-out: Upper GI concentration): 308 µM
- concentration at 0.5 h ([4]; 30 min): 557 µM
- concentration at 50 min ([4]; 50 min): 508 µM
- concentration at 1 h ([4]; 60 min): 462 µM
- concentration at 70 min ([4]; 70 min): 462 µM
- concentration at 80 min ([4]; 80 min): 404 µM
- concentration at 1.5 h ([4]; 90 min): 373 µM
